In patent publication US8258151B2, “3-aminoimidazo [1,2-A] pyridine derivatives as SGLT inhibitors” (Merck Patent GmbH, priority 2006, dated 2012):
pIC50: −log10 of the molar value.

Assays:
SGLT1 = target: T1, SGLT1 (Homo sapiens, UniProt P13866); assay: SGLT1 activity measurement: 14C-AMG uptake in BHK cells transfected with SGLT1; format: cell-based; conditions: AMG 50 μM, 37° C., 90 min
T1 construct: expressed in transfected cells
T1 sequence (P13866 1-664): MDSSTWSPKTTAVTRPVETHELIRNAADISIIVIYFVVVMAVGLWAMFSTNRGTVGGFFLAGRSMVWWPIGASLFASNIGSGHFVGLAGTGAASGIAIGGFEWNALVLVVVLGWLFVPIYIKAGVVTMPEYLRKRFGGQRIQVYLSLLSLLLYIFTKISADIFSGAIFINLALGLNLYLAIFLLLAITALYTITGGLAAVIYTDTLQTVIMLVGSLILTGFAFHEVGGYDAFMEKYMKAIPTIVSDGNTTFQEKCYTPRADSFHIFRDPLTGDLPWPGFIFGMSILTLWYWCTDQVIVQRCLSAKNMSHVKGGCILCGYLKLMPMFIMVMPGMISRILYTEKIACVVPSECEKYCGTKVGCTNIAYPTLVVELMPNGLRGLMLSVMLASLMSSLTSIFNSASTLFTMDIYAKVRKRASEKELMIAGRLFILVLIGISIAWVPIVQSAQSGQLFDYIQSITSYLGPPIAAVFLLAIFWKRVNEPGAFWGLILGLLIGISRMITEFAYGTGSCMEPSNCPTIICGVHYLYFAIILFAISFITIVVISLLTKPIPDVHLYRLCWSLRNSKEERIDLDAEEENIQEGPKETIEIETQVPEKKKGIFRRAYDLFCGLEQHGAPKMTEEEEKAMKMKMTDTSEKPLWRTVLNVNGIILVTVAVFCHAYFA
From the text: (§1) The compounds can be tested on their SGLT inhibition properties by means of BHK cells expressing SGLT1 and SGLT2. The production of the cells and the testing can be carried out as described below.
To construct the SGLT1 expression vector (KL225), the SLC5A1 gene (homologous to NM_000343) was amplified from a cDNA library using standard PCR technology and cloned over NheI/XhoI sites into pcDNA3.1 expression vector (Invitrogen) containing neomycin as a selection marker. In this vector, transcription uses the enhancer/promoter of human cytomegalovirus.
The final vector KL225 together with an additional vector containing a dihydrofolate reductase gene as a selection marker was introduced into cells. Transfection into BHK21 cells (ATCC CCL-10), cultivated in DMEM medium (GIBCO/BRL), supplemented with 10% foetal calf serum (FCS) and 20 mM glutamine, was carried out using calcium phosphate transfections according to Graham, F. L. and van der Ebb, A. J. (1973), Virology 52: 456 with 5-20 μg of uncut plasmids for 10^7 cells. Stable transfectants were selected in medium containing 1 mg/ml of G418 (GIBCO/BRL) and 20-5000 nM methotrexate as final concentration, where only cells which expressed the neomycin gene and overexpressed the dhfr gene were able to grow. After growth for 2-3 weeks, the cells were cloned (0.5 cells/well) and the clones were investigated for SGLT expression in the radioactive uptake assay. […]
(§2) A 96-well cell-based assay was developed and adapted to HTS requirements:
(§3) BHK cells (transfected with SGLT1 or SGLT2) were seeded into 96-well microtitre plates (Cultureplates, Perkin Elmer). After at least 24 h, medium was removed and the cell layer was washed with assay buffer (140 mM NaCl, 2 mM KCl, 1 mM CaCl2, 1 mM MgCl2, 10 mM HEPES, 5 mM Tris, adjusted with 1 M KOH to pH 7.4). After addition of 40 μl of assay buffer, 50 μl of AMG (50 μM for SGLT1 and 2 mM for SGLT2) in the presence or absence of compounds, the cells were incubated in a total volume of 100 μl at 37° C. for 90 min. Supernatant was removed by suction and discarded. The cells were washed and lysed by addition of 50 μl water. After 10 minutes at room temperature 200 μl Microscint 40 (Perkin Elmer) were added. The radioactivity was counted in a Topcount microplate scintillation counter (Perkin Elmer). The non-specific uptake was determined in sodium-free assay buffer (266 mM sucrose, 2 mM KCl, 1 mM CaCl2, 1 mM MgCl2, 10 mM HEPES, 5 mM Tris, adjusted with 1 M KOH to pH 7.4).

SGLT2 = target: T2, SGLT2 (Homo sapiens, UniProt P31639); assay: SGLT2 activity measurement: 14C-AMG uptake in BHK cells transfected with SGLT2; format: cell-based; conditions: AMG 2 mM, 37° C., 90 min
T2 construct: expressed in transfected cells
T2 sequence (P31639 1-672): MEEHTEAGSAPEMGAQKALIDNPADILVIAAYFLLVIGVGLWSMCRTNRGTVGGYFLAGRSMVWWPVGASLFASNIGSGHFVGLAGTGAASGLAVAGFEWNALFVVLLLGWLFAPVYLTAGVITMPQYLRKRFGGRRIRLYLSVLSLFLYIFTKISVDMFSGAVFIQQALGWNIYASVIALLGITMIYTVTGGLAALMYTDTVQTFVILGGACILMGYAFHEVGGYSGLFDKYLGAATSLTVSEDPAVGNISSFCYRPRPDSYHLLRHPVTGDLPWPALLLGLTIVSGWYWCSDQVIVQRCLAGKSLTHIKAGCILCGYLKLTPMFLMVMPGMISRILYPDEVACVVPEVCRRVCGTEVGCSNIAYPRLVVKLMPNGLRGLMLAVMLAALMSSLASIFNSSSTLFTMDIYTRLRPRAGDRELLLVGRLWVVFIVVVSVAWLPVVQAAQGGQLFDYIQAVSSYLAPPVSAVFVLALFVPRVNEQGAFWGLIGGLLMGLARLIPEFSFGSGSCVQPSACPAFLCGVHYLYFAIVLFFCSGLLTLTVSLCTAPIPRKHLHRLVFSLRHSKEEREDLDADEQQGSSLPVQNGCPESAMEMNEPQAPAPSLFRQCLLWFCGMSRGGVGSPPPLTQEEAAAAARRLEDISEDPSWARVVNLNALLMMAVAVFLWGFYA
From the text: as §1
To construct the SGLT2 expression vector (KL224), the SLC5A2 gene (homologous to NM_003041) was amplified from a cDNA library using standard PCR technology and cloned over NheI/XhoI sites into PCI-neo expression vector (Promega) containing neomycin as a selection marker. In this vector, transcription used the enhancer/promoter of human cytomegalovirus and the SV40 polyadenylation signal.
The final vector KL224 together with an additional vector containing a dihydrofolate reductase gene as a selection marker was introduced into cells. Transfection into BHK21 cells (ATCC CCL-10), cultivated in DMEM medium (GIBCO/BRL), supplemented with 10% foetal calf serum (FCS) and 20 mM glutamine, was carried out using calcium phosphate transfections according to Graham, F. L. and van der Ebb, A. J. (1973), Virology 52: 456 with 5-20 μg of uncut plasmids for 10^7 cells. Stable transfectants were selected in medium containing 1 mg/ml of G418 (GIBCO/BRL) and 20-5000 nM methotrexate as final concentration, where only cells which expressed the neomycin gene and overexpressed the dhfr gene were able to grow. After growth for 2-3 weeks, the cells were cloned (0.5 cells/well) and the clones were investigated for SGLT expression in the radioactive uptake assay.
Principally, uptake of ^14C-α-methyl-D-glucopyranoside (AMG) in, for example, Xenopus oocytes injected with the corresponding cRNA has been described (for example Wen-Sen Lee et al. (1994), J. Biol. Chem. 269, 12032-12039; Guofeng You et al. (1995), J. Biol. Chem. 270, 29365-29371).
as §2, §3

SMILES | pIC50 (SGLT1) | pIC50 (SGLT2)
NC(=O)COc1ccccc1-c1nc2ccccn2c1Nc1c(Cl)cccc1Cl [Compound A5, 2-[2-(Aminocarbonylmethoxy)phenyl]-3-(2,6-di-chlorophenylamino)imidazo[1,2-a]pyridine] | < 5.00 | 6.00 to 8.00
Cc1cccc(Cl)c1Nc1c(-c2ccccc2OCC(N)=O)nc2ccccn12 [Compound A6, 2-[2-(Aminocarbonylmethoxy)phenyl]-3-(2-chloro-6-methylphenylamino)imidazo[1,2-a]-pyridine] | < 5.00 | 6.00 to 8.00
Cc1cccc(C(C)C)c1Nc1c(-c2ccccc2OCC(N)=O)nc2ccccn12 [Compound A7, 2-[2-(Aminocarbonylmethoxy)phenyl]-3-(2-isopropyl-6-methylphenylamino)imidazo-[1,2-a]pyridine] | < 5.00 | 5.00 to 6.00
Cc1cccc(C)c1Nc1c(-c2ccccc2OCC(N)=O)nc2c(C)cccn12 [Compound A8, 2-[2-(Aminocarbonylmethoxy)phenyl]-3-(2,6-di-methylphenylamino)-8-methylimidazo[1,2-a]-pyridine] | < 5.00 | 5.00 to 6.00
Cc1cccc(C)c1Nc1c(-c2ccccc2OCC(N)=O)nc2cccc(C)n12 [Compound A9, 2-[2-(Aminocarbonylmethoxy)phenyl]-3-(2,6-di-methylphenylamino)-5-methylimidazo[1,2-a]-pyridine] | < 5.00 | 6.00 to 8.00
Cc1cccc(Cl)c1Nc1c(-c2ccccc2OCC(N)=O)nc2cccc(C)n12 [Compound A10, 2-[2-(Aminocarbonylmethoxy)phenyl]-3-(2-chloro-6-methylphenylamino)-5-methyl-imidazo[1,2-a]pyridine] | 5.00 to 6.00 | 6.00 to 8.00
Cc1cccc2nc(-c3ccccc3OCC(N)=O)c(Nc3c(Cl)cccc3Cl)n12 [Compound A11, 2-[2-(Aminocarbonylmethoxy)phenyl]-3-(2,6-di-chlorophenylamino)-5-methylimidazo[1,2-a]-pyridine] | 5.00 to 6.00 | 6.00 to 8.00
Cc1cccc(C)c1Nc1c(-c2ccccc2OCC(N)=O)nc2cccc(Cl)n12 [Compound A12, 2-[2-(Aminocarbonylmethoxy)phenyl]-3-(2,6-dimethylphenylamino)-5-chloroimidazo[1,2-a]-pyridine] |  | 5.00 to 6.00
CCc1cccc2nc(-c3ccccc3OCC(N)=O)c(Nc3c(C)cccc3C)n12 [Compound A13, 2-[2-(Aminocarbonylmethoxy)phenyl]-3-(2,6-dimethylphenylamino)-5-ethylimidazo[1,2-a]-pyridine] | 5.00 to 6.00 | 6.00 to 8.00
Cc1cccc(C)c1Nc1c(-c2c(C)cc(OCCN(C)C)cc2OCC(N)=O)nc2ccccn12 [Compound A119, 2-[2-(Aminocarbonylmethoxy)-4-(2-dimethyl-aminoethoxy)-6-methylphenyl]-3-(2,6-dimethyl-phenylamino)imidazo[1,2-a]pyridine] |  | 5.00 to 6.00

Now from value to molecule:

pIC50 (SGLT1) | pIC50 (SGLT2) | SMILES
5.00 to 6.00 | 6.00 to 8.00 | COc1cccc(OCC(N)=O)c1-c1nc2ccc(F)cn2c1Nc1c(C)cccc1C [Compound A1, 2-[2-(aminocarbonylmethoxy)-6-methoxyphenyl]-3-(2,6-dimethylphenylamino)-6-fluoroimidazo[1,2-a]pyridine]
5.00 to 6.00 | 6.00 to 8.00 | Cc1cccc(C)c1Nc1c(-c2c(C)cccc2OCC(N)=O)nc2ccc(F)cn12 [Compound A2, 2-[2-(aminocarbonylmethoxy)-6-methylphenyl]-3-(2,6-dimethylphenylamino)-6-fluoroimidazo[1,2-a]pyridine]
5.00 to 6.00 | 6.00 to 8.00 | Cc1cccc(C)c1Nc1c(-c2c(Cl)cccc2OCC(N)=O)nc2ccc(F)cn12 [Compound A3, 2-[2-(aminocarbonylmethoxy)-6-chlorophenyl]-3-(2,6-dimethylphenylamino)-6-fluoroimidazo[1,2-a]pyridine]
< 5.00 | 6.00 to 8.00 | Cc1cccc(C)c1Nc1c(-c2ccccc2OCC(N)=O)nc2ccccn12 [Compound A4, 2-[2-(Aminocarbonylmethoxy)phenyl]-3-(2,6-di-methylphenylamino)imidazo[1,2-a]pyridine]
< 5.00 | 6.00 to 8.00 | COc1ccc(-c2nc3ccccn3c2Nc2c(C)cccc2C)c(OCC(N)=O)c1 [Compound A14, 2-[2-(Aminocarbonylmethoxy)-4-methoxy-phenyl]-3-(2,6-dimethylphenylamino)imidazo-[1,2-a]pyridine]
 | 5.00 to 6.00 | COc1cc(OCC(N)=O)c(-c2nc3ccc(F)cn3c2Nc2c(C)cccc2C)cc1OC [Compound A189, 2-[2-(Aminocarbonylmethoxy)-4,5-dimethoxy-phenyl]-3-(2,6-dimethylphenylamino)-6-fluoro-imidazo[1,2-a]pyridine]
 | 5.00 to 6.00 | COc1cc(C)c(-c2nc3c(O)cccn3c2Nc2c(C)cccc2C)c(OCC(N)=O)c1 [Compound A193, 2-[2-(Aminocarbonylmethoxy)-4-methoxy-6-methylphenyl]-3-(2,6-dimethylphenylamino)-8-hydroxyimidazo[1,2-a]pyridine]
 | 5.00 to 6.00 | CCc1cc(OC)cc(OCC(N)=O)c1-c1nc2ccc(C(=O)O)cn2c1Nc1c(C)cccc1C [Compound A223, 2-[2-(Aminocarbonylmethoxy)-4-methoxy-6-ethylphenyl]-3-(2,6-dimethylphenylamino)-6-carboxyimidazo[1,2-a]pyridine]
